The results in this text go back to patent US11179412B2, “Methods of treating conditions involving elevated inflammatory response” (University of Pittsburgh—Of the Commonwealth System of …, priority 2017, dated 2021).

Data set [1] relates to STING activation (IFNβ release) in iBMDMs. Briefly: IFNβ release ELISA after STING ligand (or LPS) stimulation, iBMDMs. As to conditions: iBMDMs; 3′3′-cGAMP 10 μg/ml, 16 hours; compound 10 μM. Type of data set: cell-based, mouse. The procedure, abridged:
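iBMDMs were stimulated with a STING ligand such as 3′3′-cGAMP, or with LPS. Secreted IFNβ in culture medium was measured by commercial mouse or human IFNβ ELISA.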
(In general: ELISA stands for enzyme-linked immunosorbent assay.)

Data set [2] has as its system pPMs. Briefly: Cell viability assay (CCK-8), pPMs. Type of data set: cell-based, mouse. As to conditions: 3′3′-cGAMP 10 μg/ml, ALK inhibitor 10 μM, 16 hours. The protocol: (§1) Cells were seeded into 96-well plates and incubated with the indicated treatments. Subsequently, 100 μl fresh medium was added to cells containing 10 μl Cell Counting Kit-8 (CCK-8) solutions (Dojindo Laboratories) and incubated for 1 h (37° C., 5% CO2). Absorbance at 450 nm was measured using a microplate reader (Tecan).

For data set [3], the system named is iBMDMs. Briefly: Cell viability assay (CCK-8), iBMDMs. Type of data set: cell-based, mouse. As to conditions: 3′3′-cGAMP 10 μg/ml, ALK inhibitor 10 μM, 16 hours. As to the method: as §1
In data set [4] the test system is THP1 cells. Briefly: Cell viability assay (CCK-8), THP1. Type of data set: cell-based, human. As to conditions: 3′3′-cGAMP 10 μg/ml, ALK inhibitor 10 μM, 16 hours. The protocol:
as §1

Data set [5] relates to RAW264.7 cells. Briefly: Cell viability assay (CCK-8), RAW264.7. Type of data set: cell-based, mouse. As to conditions: 3′3′-cGAMP 10 μg/ml, ALK inhibitor 10 μM, 16 hours. The protocol: as §1
In data set [6] the test system is STING activation (IFNβ release) in pPMs. Briefly: IFNβ release ELISA, primary peritoneal macrophages (pPMs). In kind it is cell-based, mouse. As to conditions: mouse pPMs; 3′3′-cGAMP 10 μg/ml, 16 hours; compound 10 μM. The protocol: Mouse pPMs were isolated from C57BL/6J mice as previously described (69). In brief, eight-week-old female or male C57BL/6J mice were injected with 3.0% thioglycollate medium (2 mL/mouse) into the peritoneum. Three days after injection, mice were sacrificed and injected with 3 mL of 0.05% EDTA-PBS into the peritoneum to harvest peritoneal macrophages. Collected cells were centrifuged at 1000 rpm for 5 min at 4° C., and the cell pellet was washed with PBS and centrifuged again. The cell pellet was then suspended in Dulbecco's Modified Eagle Medium supplemented with 10% FBS and 1× Penicillin-Streptomycin and cultured in a culture dish.
(§2) Macrophages or monocytes were treated with 3′3′-cGAMP (10 μg/ml, Invitrogen) for 16 hours in the absence or presence of one compound (10 μM) from the Target-selective Inhibitory Library (#L3500, Selleck Chemicals). Commercially available enzyme-linked immunosorbent assay (ELISA) kits were used to measure the concentrations of mouse IFNβ (Thermo Fisher Scientific) or human IFNβ (Thermo Fisher Scientific) in culture medium according to the manufacturer's instructions.

The subject of data set [7] is STING activation (IFNβ release) in pPBMCs. Briefly: IFNβ release ELISA, primary peripheral blood mononuclear cells (pPBMCs). Type of data set: cell-based. As to conditions: human pPBMCs; 3′3′-cGAMP 10 μg/ml, 16 hours; compound 10 μM. As to the method:
as §2

Data set [8] has as its system STING signaling (TBK1, IRF3, p65, ALK, EGFR, AKT phosphorylation) in RAW264.7 cells. Briefly: Western blot of STING pathway protein phosphorylation, RAW264.7. Type of data set: cell-based, mouse. As to conditions: 16 hours, 10 μM; for STING ligand-induced phosphorylation of TBK1, IRF3, and p65: 3′3′-cGAMP or c-di-AMP 10 μg/ml; for 3′3′-cGAMP- or c-di-AMP-induced phosphorylation of ALK, EGFR, and AKT: ligand 10 μg/ml. The protocol: (§3) For immunoblotting, cells were lysed in Cell Lysis Buffer (#9803, Cell Signaling Technology) with protease inhibitor cocktail (Promega), phosphatase inhibitor cocktail (Sigma), and 1 mM Na3VO4 (70). Cleared lysates were resolved by SDS-PAGE (#3450124, Bio-Rad) and then transferred onto PVDF membranes (#1704273, Bio-Rad). The membranes were blocked with Tris-buffered saline Tween 20 (TBST) containing 5% skim milk for 1 h at room temperature and then incubated with the indicated primary antibodies (1:1000-1:5000) overnight at 4° C. After being washed with TBST, the membranes were incubated with an HRP-linked anti-mouse IgG secondary antibody (#7076, Cell Signaling Technology) or HRP-linked anti-rabbit IgG secondary antibody (#7074, Cell Signaling Technology) for 1 h at room temperature. The membranes were washed three times in TBST and then visualized and analyzed with a ChemiDoc Touch Imaging System (#1708370, Bio-Rad). The intensities of bands were analyzed with Image Lab software.
A general note: Immunoblotting shows a protein as a band on a membrane.

In data set [9] the test system is STING signaling (TBK1, IRF3, p65, ALK, EGFR, AKT phosphorylation) in iBMDMs. Briefly: Western blot of STING pathway protein phosphorylation, iBMDMs. Type of data set: cell-based, mouse. As to conditions: 16 hours, 10 μM; for STING ligand-induced phosphorylation of TBK1, IRF3, and p65: 3′3′-cGAMP or c-di-AMP 10 μg/ml; for 3′3′-cGAMP- or c-di-AMP-induced phosphorylation of ALK, EGFR, and AKT: ligand 10 μg/ml. As to the method: as §3

Data set [10] concerns STING signaling (TBK1, IRF3, p65, ALK, EGFR, AKT phosphorylation) in THP1 cells. Briefly: Western blot of STING pathway protein phosphorylation, THP1. In kind it is cell-based, human. As to conditions: 16 hours, 10 μM; for STING ligand-induced phosphorylation of TBK1, IRF3, and p65: 3′3′-cGAMP or c-di-AMP 10 μg/ml; for 3′3′-cGAMP- or c-di-AMP-induced phosphorylation of ALK, EGFR, and AKT: ligand 10 μg/ml. The protocol: as §3

For data set [11], the target named is T1, interaction between ALK and EGFR (Mus musculus, UniProt P97793+Q01279).
T1 construct: endogenous in cells; host or cells: iBMDMs
Briefly: IP analysis of the interaction between ALK and EGFR, iBMDMs. As to conditions: 3′3′-cGAMP or c-di-AMP 10 μg/ml, 16 hours, 10 μM. Type of data set: cell-based. As to the method:
Concentrations of proteins in the supernatant were determined by bicinchoninic acid assay. […] Following incubation, agarose/sepharose beads were washed extensively with PBS and proteins were eluted by boiling in 2× sodium dodecyl sulfate (SDS) sample buffer before SDS-PAGE electrophoresis.

Data set [12] addresses T2, interaction between ALK and EGFR (Homo sapiens, UniProt P00533+Q9UM73).
T2 construct: endogenous in cells; host or cells: THP1 cells
Briefly: IP analysis of the interaction between ALK and EGFR, THP1. Type of data set: cell-based. As to conditions: 3′3′-cGAMP or c-di-AMP 10 μg/ml, 16 hours, 10 μM. The protocol:
For immunoprecipitation, cells were lysed at 4° C. in ice-cold modified radioimmunoprecipitation lysis buffer (#9806, Cell Signaling Technology) and cell lysates were cleared by centrifugation (12,000 g, 10 min). Concentrations of proteins in the supernatant were determined by bicinchoninic acid assay. Prior to immunoprecipitation, samples containing equal amounts of proteins were pre-cleared with Protein A/G agarose/sepharose beads (#20423, Thermo Fisher Scientific Inc.) (4° C., 3 h) and subsequently incubated with various irrelevant IgG or anti-ALK (#ab190934, Abcam) or anti-EGFR antibodies (#2232S, Cell Signaling Technology) in the presence of Protein A/G agarose/sepharose beads overnight at 4° C. with gentle shaking. Following incubation, agarose/sepharose beads were washed extensively with PBS and proteins were eluted by boiling in 2× sodium dodecyl sulfate (SDS) sample buffer before SDS-PAGE electrophoresis.

“Also recorded” adds a separate entry of the source.

T2 sequence (Q9UM73 19-1620): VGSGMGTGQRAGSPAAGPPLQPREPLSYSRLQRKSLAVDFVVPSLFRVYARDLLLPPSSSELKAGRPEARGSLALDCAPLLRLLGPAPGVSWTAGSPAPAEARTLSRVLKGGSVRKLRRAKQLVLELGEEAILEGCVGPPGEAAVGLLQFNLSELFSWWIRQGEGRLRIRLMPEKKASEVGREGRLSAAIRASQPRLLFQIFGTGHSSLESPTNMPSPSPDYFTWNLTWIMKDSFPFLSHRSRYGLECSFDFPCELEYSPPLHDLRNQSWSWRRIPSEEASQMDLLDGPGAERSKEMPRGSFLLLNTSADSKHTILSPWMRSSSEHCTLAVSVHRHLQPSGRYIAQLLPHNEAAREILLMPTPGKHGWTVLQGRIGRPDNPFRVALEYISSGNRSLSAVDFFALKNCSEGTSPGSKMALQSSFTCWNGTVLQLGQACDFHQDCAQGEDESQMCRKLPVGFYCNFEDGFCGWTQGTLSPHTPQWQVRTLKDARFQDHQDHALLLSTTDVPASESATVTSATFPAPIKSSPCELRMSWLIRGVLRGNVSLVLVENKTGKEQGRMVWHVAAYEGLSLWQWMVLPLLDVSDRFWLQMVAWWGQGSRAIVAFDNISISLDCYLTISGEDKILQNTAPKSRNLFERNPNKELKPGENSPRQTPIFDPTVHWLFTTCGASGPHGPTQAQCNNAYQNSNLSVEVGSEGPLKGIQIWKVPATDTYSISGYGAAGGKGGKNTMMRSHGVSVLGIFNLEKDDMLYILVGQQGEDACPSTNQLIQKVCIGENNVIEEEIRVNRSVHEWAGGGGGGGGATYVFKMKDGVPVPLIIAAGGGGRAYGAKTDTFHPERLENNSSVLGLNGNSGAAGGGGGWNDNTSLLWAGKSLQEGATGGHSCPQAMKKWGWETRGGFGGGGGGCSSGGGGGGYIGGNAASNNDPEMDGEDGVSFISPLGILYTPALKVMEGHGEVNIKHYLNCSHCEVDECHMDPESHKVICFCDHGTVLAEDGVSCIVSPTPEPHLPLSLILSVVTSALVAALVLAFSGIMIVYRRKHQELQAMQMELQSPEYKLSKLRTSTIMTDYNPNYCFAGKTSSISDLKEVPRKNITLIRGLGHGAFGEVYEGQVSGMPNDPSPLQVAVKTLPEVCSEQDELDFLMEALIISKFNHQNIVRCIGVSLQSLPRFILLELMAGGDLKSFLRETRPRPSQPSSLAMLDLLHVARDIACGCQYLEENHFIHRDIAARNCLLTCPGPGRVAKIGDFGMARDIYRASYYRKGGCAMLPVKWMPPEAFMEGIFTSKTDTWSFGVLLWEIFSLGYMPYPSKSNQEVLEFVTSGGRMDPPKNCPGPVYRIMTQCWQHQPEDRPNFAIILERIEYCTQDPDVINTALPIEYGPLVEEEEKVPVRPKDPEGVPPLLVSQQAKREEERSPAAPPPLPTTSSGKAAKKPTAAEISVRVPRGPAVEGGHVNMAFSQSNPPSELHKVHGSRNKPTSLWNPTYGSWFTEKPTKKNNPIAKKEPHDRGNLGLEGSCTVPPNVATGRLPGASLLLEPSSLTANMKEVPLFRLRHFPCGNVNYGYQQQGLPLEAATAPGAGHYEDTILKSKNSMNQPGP
T2 sequence (P00533 25-1210): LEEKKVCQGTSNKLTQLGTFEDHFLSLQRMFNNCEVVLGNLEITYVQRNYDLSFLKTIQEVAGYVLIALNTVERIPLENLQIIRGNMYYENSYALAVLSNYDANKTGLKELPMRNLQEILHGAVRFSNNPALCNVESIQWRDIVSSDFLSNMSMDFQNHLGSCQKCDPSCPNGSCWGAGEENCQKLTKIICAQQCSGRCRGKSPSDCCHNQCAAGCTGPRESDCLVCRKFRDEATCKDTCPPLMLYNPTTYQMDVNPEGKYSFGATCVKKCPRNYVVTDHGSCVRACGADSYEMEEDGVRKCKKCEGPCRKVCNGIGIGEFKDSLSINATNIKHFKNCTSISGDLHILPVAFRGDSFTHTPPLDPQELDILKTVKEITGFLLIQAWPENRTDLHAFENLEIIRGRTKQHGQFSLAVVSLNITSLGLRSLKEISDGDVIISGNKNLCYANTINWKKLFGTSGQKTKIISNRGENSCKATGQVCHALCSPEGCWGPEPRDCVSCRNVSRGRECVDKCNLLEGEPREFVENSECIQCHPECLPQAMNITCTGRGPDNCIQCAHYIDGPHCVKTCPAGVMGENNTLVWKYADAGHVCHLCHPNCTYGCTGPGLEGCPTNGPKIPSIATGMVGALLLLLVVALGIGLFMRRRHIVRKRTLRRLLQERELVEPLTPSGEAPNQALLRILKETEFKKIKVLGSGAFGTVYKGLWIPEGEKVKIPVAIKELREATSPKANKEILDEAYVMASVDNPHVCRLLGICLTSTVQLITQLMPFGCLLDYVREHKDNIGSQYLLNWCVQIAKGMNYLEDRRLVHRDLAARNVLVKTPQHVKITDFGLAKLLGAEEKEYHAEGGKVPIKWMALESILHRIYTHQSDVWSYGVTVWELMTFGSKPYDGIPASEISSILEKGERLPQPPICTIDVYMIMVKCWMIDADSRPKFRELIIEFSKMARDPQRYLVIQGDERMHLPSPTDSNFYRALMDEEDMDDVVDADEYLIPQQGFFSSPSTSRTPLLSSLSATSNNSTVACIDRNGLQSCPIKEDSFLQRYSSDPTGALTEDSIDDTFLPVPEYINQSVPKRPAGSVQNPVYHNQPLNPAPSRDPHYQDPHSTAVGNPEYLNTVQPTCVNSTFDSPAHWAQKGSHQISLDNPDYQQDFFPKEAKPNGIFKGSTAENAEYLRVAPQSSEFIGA

On to `COc1cc(N2CCC(N3CCN(C)CC3)CC2)ccc1Nc1ncc(Cl)c(Nc2ccccc2P(C)(C)=O)n1` [AP26113], for which the “fold increase in IFN-β release” value in [1] stood at 0.19 fold. Also, the cell viability entry in [2], in [3], in [4] and in data set [5] was “did not affect cell viability” each time.

With `COc1cc(N2CCC(N)CC2)ccc1Nc1ncc(Cl)c(-c2c[nH]c3ccccc23)n1` [AZD3463], the “3′3′-cGAMP-induced IFNβ release” value is “blocked; also recorded: diminished” in [1], “confirmed their inhibitory properties” in data set [6] and “confirmed their inhibitory properties” in [7]. In addition, the “fold increase in IFN-β release” value in [1] is 0.05 fold. Besides, the cell viability entry in data set [2], in data set [3], in data set [4] and in data set [5] was “exhibited cytotoxicity” each time.

`CC(C)NC[C@@H](C(=O)N1CCN(c2ncnc3c2[C@H](C)C[C@H]3O)CC1)c1ccc(Cl)cc1` [GDC-0068]: in data set [1], the “fold increase in IFN-β release” value worked out at 0.86 fold. In addition, the “STING ligand-induced phosphorylation of TBK1, IRF3, and p65” value in data set [8], in [9] and in data set [10] was “diminished” in each case. In addition, the “3′3′-cGAMP- or c-di-AMP-induced phosphorylation of ALK, EGFR, and AKT” value is “only blocked the phosphorylation of AKT, but not ALK or EGFR” in data set [8]; “only blocked the phosphorylation of AKT, but not ALK or EGFR” in [9]; “only blocked the phosphorylation of AKT, but not ALK or EGFR” in [10].

Turning to `O=C(/C=C\n1cnc(-c2cc(C(F)(F)F)cc(C(F)(F)F)c2)n1)NNc1cnccn1` [KPT-330], the “3′3′-cGAMP-induced IFNβ release” value in [1] was “blocked”; in data set [6], “confirmed their inhibitory properties”; in data set [7], “confirmed their inhibitory properties”. Moreover, the “fold increase in IFN-β release” value in [1] is on record as 0.05 fold.

As for `C[C@@H]1CN(CC(=O)Nc2ccc3c(c2)Cc2cccc(-c4cc(=O)cc(N5CCOCC5)o4)c2S3)C[C@H](C)O1` [KU-60019], the “3′3′-cGAMP-induced IFNβ release” value in [1] was “blocked”; in data set [6], “confirmed their inhibitory properties”; in [7], “confirmed their inhibitory properties”. In data set [1], the “fold increase in IFN-β release” value is listed as 0.06 fold.

In the case of `C#Cc1cccc(Nc2ncnc3cc(OCCOC)c(OCCO)cc23)c1` [OSI-420], the “fold increase in IFN-β release” value in [1] amounted to 0.14 fold. The “STING ligand-induced phosphorylation of TBK1, IRF3, and p65” value in data set [8], in data set [9] and in [10] was “diminished” each time. The “3′3′-cGAMP- or c-di-AMP-induced phosphorylation of ALK, EGFR, and AKT” value in data set [8], in data set [9] and in [10] was “attenuated” in each case. For the same compound, the “interaction between ALK and EGFR” value in [11] and in [12] was “reduced” in each case.

In the case of `Cl.NC(=O)c1cnc(N[C@@H]2CCCC[C@@H]2N)nc1Nc1cccc(-n2nccn2)c1` [PRT062607 (P505-15, BIIB057) HCl], the “3′3′-cGAMP-induced IFNβ release” value in [1] was “blocked”; in data set [6], “confirmed their inhibitory properties”; in data set [7], “confirmed their inhibitory properties”. For the same compound, the “fold increase in IFN-β release” value in data set [1] is given as 0.07 fold.

For the compound SNS-314 Mesylate, in data set [1], the “fold increase in IFN-β release” value was found to be 1.10 fold.

In the case of Tropicamide, the “fold increase in IFN-β release” value in [1] is recorded as 2.09 fold.

VU 0357121: in data set [1], the “fold increase in IFN-β release” value is listed as 1.49 fold.

In the case of VU 0364439, the “fold increase in IFN-β release” value in [1] came to 1.60 fold.

With VU 0364770, the “fold increase in IFN-β release” value in [1] is listed as 2.00 fold.
